# Experiment: Maximum absorption wavelength (λmax) of the illustrative compounds in solvent
# Type: physicochemical
# Details: EtOAc
row,SMILES,maximum absorption wavelength (λmax)
1,CC(C)(C)C(=O)C(C#N)=C1Sc2c(OCCO)ccc(OCCO)c2S1 [S-29],382 nm
2,CCCCC(CC)C(=O)Oc1ccc(OC(=O)C(CC)CCCC)c2c1SC(=C(C#N)C(=O)C(C)(C)C)S2 (stereo not drawn) [S-01],375 nm
3,CCCCC(CC)C(=O)Oc1ccc(OC(=O)C(CC)CCCC)c2c1SC(=C(C#N)C(N)=O)S2 (stereo not drawn) [S-20],357 nm
4,CCCCC(CC)COc1ccc(OCC(CC)CCCC)c2c1SC(=C(C#N)C(=O)C(C)(C)C)S2 (stereo not drawn) [S-06],382 nm
5,CCCCC(CC)COc1ccc(OCC(CC)CCCC)c2c1SC(=C(C#N)C#N)S2 (stereo not drawn) [S-26],369 nm
6,CCCCC(CC)C(=O)Oc1ccc(OC(=O)C(CC)CCCC)c2c1SC(=C(C#N)C#N)S2 (stereo not drawn) [S-17],363 nm

# Continued, values first:
row,maximum absorption wavelength (λmax),SMILES
1,382 nm,CC(CCOc1ccc(OCCC(C)CC(C)(C)C)c2c1SC(=C(C#N)C(=O)C(C)(C)C)S2)CC(C)(C)C (stereo not drawn) [S-28]
2,369 nm,CC(CCOc1ccc(OCCC(C)CC(C)(C)C)c2c1SC(=C(C#N)C#N)S2)CC(C)(C)C (stereo not drawn) [S-27]

# Same assay, conditions: MeOH
row,maximum absorption wavelength (λmax),SMILES
1,369 nm,N#CC(C#N)=C1Sc2c(OCCO)ccc(OCCO)c2S1 [S-30]

# Source: patent US20110059033A1, “ULTRAVIOLET ABSORBING COMPOSITION” (FUJIFILM Corporation, priority 2009, published 2011)
